The target of one assay is EGFR L858R (Homo sapiens (Human), UniProt P00533, L858R). As to the kind of experiment: Biochemical EGFR inhibition assay, EGFR L858R. Particulars: Caliper mobility shift; 1.0 mM ATP or ATP Km; read-out: Enz EGFR_L858R IC50.
A further assay has as its target EGFR (d746-750) (Homo sapiens (Human), UniProt P00533, DEL746-750). Briefly: Biochemical EGFR inhibition assay, EGFR (d746-750). The note with it: Caliper mobility shift; 1.0 mM ATP or ATP Km; read-out: Enz EGFR_Exon19-del746-750 IC50.
In assay [1] the target is pEGFR (Tyr1068) in PC-9 cells (Ex19Del) (Homo sapiens (Human), UniProt P00533, DEL746-750). Briefly: PC-9 pEGFR AlphaLISA assay. Type of assay: cell-based. The note with it: 4 hours incubation, p-EGFR (Tyr1068) AlphaLISA, read-out: Ext pEGFR_PC-9 Ex19Del IC50. In a few lines:
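Compounds are added in ten 4-fold dilutions to adherent cells grown in serum-containing (10% FBS) phenol-free DMEM and left for 4 hours at 37° C. Phosphorylated receptor in lysates is quantified by bead-based AlphaLISA. IC50 values derive from inhibition plotted against log dose.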
(Bead proximity is the source of the signal in Alpha formats.)

Data on 19 compounds can be found in patent publication US20250236608A1, “EGFR INHIBITORS” (Blueprint Medicines Corporation, priority 2022, published 2025).

One may read the IC50 as the concentration that inhibits the measured activity by half.

EGFR (d746-750), sequence (P00533 other isoform, or with tags, fused parts or gaps del 1-694/del 746-750 limits assumed): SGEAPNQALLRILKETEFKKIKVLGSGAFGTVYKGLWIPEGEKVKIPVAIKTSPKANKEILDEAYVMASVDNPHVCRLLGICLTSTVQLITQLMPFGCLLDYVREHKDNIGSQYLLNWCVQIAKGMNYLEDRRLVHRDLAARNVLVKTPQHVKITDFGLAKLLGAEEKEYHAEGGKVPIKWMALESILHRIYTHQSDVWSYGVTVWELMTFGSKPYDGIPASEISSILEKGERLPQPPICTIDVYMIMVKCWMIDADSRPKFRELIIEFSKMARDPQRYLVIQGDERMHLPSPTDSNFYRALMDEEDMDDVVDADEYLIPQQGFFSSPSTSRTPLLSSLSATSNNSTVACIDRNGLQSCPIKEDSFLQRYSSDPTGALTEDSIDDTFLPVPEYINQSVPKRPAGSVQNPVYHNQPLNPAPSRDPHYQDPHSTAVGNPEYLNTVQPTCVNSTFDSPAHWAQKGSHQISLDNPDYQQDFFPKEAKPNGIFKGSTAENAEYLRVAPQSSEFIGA
pEGFR (Tyr1068) in PC-9 cells (Ex19Del), sequence (P00533 other isoform, or with tags, fused parts or gaps del 746-750): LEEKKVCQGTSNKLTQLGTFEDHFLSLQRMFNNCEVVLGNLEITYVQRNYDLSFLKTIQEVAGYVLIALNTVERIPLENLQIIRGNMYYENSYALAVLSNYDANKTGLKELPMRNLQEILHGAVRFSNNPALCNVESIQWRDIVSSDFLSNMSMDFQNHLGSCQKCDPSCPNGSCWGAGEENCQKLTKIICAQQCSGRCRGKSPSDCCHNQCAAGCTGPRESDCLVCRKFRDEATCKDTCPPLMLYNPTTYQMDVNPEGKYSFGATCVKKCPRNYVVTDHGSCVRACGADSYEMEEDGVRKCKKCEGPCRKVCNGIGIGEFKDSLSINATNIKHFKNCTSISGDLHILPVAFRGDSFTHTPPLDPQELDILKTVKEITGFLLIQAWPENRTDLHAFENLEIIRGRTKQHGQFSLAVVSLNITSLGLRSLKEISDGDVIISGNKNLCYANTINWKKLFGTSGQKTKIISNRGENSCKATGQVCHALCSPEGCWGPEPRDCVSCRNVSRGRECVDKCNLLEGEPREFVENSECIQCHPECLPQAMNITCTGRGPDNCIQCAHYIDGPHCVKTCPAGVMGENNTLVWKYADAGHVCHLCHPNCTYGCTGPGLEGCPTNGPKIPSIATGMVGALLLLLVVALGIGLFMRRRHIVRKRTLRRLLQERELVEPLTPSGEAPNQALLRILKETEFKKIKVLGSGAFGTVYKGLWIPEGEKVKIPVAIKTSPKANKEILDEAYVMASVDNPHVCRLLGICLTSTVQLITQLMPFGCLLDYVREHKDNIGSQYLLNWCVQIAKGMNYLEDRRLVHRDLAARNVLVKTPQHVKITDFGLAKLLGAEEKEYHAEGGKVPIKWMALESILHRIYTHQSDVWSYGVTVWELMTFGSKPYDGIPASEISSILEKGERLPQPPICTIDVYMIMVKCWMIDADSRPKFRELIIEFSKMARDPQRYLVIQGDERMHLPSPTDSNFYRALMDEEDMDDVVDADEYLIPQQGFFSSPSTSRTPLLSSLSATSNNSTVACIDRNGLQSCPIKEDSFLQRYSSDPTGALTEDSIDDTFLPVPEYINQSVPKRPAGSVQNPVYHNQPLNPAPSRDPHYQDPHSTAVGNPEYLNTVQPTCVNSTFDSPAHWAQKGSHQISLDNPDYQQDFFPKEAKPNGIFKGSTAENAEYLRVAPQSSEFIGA
EGFR L858R, sequence (P00533 25-1210 L858R): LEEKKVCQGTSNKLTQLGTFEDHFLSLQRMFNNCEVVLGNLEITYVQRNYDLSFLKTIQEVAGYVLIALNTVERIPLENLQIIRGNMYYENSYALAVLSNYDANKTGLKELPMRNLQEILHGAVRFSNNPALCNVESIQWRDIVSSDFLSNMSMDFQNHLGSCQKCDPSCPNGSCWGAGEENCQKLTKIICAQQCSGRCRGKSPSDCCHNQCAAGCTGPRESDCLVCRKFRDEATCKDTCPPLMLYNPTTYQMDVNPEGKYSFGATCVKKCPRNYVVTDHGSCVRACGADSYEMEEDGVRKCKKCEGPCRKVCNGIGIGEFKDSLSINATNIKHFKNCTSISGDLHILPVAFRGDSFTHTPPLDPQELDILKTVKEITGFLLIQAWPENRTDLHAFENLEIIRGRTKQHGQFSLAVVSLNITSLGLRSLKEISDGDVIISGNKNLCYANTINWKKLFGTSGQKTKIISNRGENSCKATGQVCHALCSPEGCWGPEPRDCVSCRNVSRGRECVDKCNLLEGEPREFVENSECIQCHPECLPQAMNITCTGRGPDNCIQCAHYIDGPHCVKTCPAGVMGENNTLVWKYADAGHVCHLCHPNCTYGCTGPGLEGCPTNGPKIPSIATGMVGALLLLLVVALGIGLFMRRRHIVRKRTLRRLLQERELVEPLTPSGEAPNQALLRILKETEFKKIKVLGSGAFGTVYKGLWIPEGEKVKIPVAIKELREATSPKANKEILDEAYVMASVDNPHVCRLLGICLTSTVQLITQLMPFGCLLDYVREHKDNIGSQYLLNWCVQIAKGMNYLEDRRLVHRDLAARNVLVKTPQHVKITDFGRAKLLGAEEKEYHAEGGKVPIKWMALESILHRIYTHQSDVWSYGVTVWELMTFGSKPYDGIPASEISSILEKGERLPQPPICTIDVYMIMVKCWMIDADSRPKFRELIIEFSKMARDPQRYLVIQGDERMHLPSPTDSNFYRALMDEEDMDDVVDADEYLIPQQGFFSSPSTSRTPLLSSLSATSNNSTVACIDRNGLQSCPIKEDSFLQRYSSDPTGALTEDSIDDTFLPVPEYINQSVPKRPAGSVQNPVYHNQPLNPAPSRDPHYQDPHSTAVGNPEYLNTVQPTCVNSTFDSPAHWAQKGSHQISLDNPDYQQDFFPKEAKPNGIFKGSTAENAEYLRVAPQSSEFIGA

For `COc1cc2ncnc(-c3cn(C)nc3-c3ccccc3F)c2cc1NC(=O)[C@]12C[C@H]1CN(C)C2` (single isomer, unassigned) [Example 255, (1R,5R)—N-(4-(3-(2-fluorophenyl)-1-methyl-1H-pyrazol-4-yl)-7-methoxyquinazolin-6-yl)-3-methyl-3-azabicyclo[3.1.0]hexane-1-carboxamide or (1S,5S)—N-(4-(3-(2-fluorophenyl)-1-methyl-1H-pyrazol-4-yl)-7-methoxyquinazolin-6-yl)-3-methyl-3-azabicyclo[3.1.0]hexane-1-carboxamide], the IC50 at EGFR L858R was 2.7 nM; at EGFR (d746-750) it was 1.8 nM; in assay [1], 3.8 nM.

`COc1cc2ncnc(-c3cn(C)nc3-c3ccccc3)c2cc1NC(=O)N1C[C@@H](C)N(C)C[C@@H]1C` [Example 182, (2S,5R)—N-(7-methoxy-4-(1-methyl-3-phenyl-1H-pyrazol-4-yl)quinazolin-6-yl)-2,4,5-trimethylpiperazine-1-carboxamide]: the IC50 at EGFR L858R was 4.1 nM; on EGFR (d746-750) it was 1.8 nM; in assay [1], 5.2 nM.

Take `CCc1ccc(-c2cc3c(-c4cn(C)nc4-c4ccccc4)ncnc3cc2OC)c2c[nH]nc12` [Example 472, 6-(7-ethyl-2H-indazol-4-yl)-7-methoxy-4-(1-methyl-3-phenyl-1H-pyrazol-4-yl)quinazoline]: the IC50 on EGFR L858R worked out at 7.6 nM; on EGFR (d746-750) it was 1.9 nM; in assay [1] it was 2.7 nM.

Turning to `COc1cc2ncnc(-c3cn(C)nc3-c3ccccc3)c2nc1OC(C)c1cccnc1F` (stereo not drawn) [Example 30, 6-(1-(2-fluoropyridin-3-yl)ethoxy)-7-methoxy-4-(1-methyl-3-phenyl-1H-pyrazol-4-yl)pyrido[3,2-d]pyrimidine], the IC50 on EGFR L858R came out at 1.4 nM; at EGFR (d746-750), 1 nM; in assay [1], 1.1 nM.

For `CN1C[C@H]2C[C@@]2(C(=O)Nc2nc3c(-c4cn(C)nc4-c4ccccc4)ncnc3cc2OC2CC2)C1` [Example 460, (1S,5S)—N-[7-cyclopropoxy-4-(1-methyl-3-phenyl-1H-pyrazol-4-yl)pyrido[3,2-d]pyrimidin-6-yl]-3-methyl-3-azabicyclo[3.1.0]hexane-1-carboxamide], the IC50 on EGFR L858R was found to be 5.7 nM; at EGFR (d746-750) it was 1.5 nM; in assay [1], 3.2 nM.

As for `CCOc1cc2ncnc(-c3cn(C)nc3-c3ccccc3)c2nc1N1CC2(COC2)C1` [Example 175, 6-(7-ethoxy-4-(1-methyl-3-phenyl-1H-pyrazol-4-yl)pyrido[3,2-d]pyrimidin-6-yl)-2-oxa-6-azaspiro[3.3]heptane], the IC50 at EGFR L858R was 1.6 nM; at EGFR (d746-750) it was 1 nM; in assay [1], 1.2 nM.

For the compound `COc1cc2ncnc(-c3cn(C)nc3-c3ccccc3)c2cc1OC(=O)N1CCN2CCCC2C1` (stereo in doubt) [Example 85, 7-methoxy-4-(1-methyl-3-phenyl-1H-pyrazol-4-yl)quinazolin-6-yl (R)-hexahydropyrrolo[1,2-a]pyrazine-2(1H)-carboxylate], the figures for the IC50 (at EGFR L858R; on EGFR (d746-750); in assay [1]) were 3.9 nM, 2.7 nM and 13.3 nM, respectively.

For `COc1cc2ncnc(-c3sc(C)nc3-c3ccccc3)c2nc1NC(=O)C1CC1` [Example 437, N-(7-methoxy-4-(2-methyl-4-phenylthiazol-5-yl)pyrido[3,2-d]pyrimidin-6-yl)cyclopropanecarboxamide], the 50% inhibitory concentration (IC50) on EGFR L858R was 1.4 nM; at EGFR (d746-750), 0.8 nM; in assay [1], 4.2 nM.

Turning to `COc1cc2ncnc(-c3cn(C)nc3-c3ccccc3)c2nc1O[C@H](C)c1cnnn1C` [Example 41, (R)-7-methoxy-6-(1-(1-methyl-1H-1,2,3-triazol-5-yl)ethoxy)-4-(1-methyl-3-phenyl-1H-pyrazol-4-yl)pyrido[3,2-d]pyrimidine], the IC50 on EGFR L858R came to 8.3 nM; at EGFR (d746-750), 4.1 nM; in assay [1], 9.2 nM.

For the compound `COc1cc2ncnc(-c3cn(CCO)nc3-c3ccccc3)c2cc1NC(=O)C12CC(C1)C2` [Example 265, N-(4-(1-(2-hydroxyethyl)-3-phenyl-1H-pyrazol-4-yl)-7-methoxyquinazolin-6-yl)bicyclo[1.1.1]pentane-1-carboxamide], the IC50 at EGFR L858R came to 3.2 nM; at EGFR (d746-750), 1.8 nM; in assay [1], 2.3 nM.

As for `CCC(=O)Nc1cc2c(-c3cnn(C4CCOCC4)c3-c3ccccc3)ncnc2cc1OC` [Example 498], the IC50 was determined as 306 nM at EGFR L858R, 349 nM on EGFR (d746-750) and 589 nM in assay [1].

Regarding `COc1cc2ncnc(-c3cn(C)nc3-c3ccccc3)c2cc1N1CC[C@@H](F)[C@H](O)C1` (single isomer, unassigned) [Example 173, (3R,4R)-4-fluoro-1-(7-methoxy-4-(1-methyl-3-phenyl-1H-pyrazol-4-yl)quinazolin-6-yl) piperidin-3-ol or (3S,4S)-4-fluoro-1-(7-methoxy-4-(1-methyl-3-phenyl-1H-pyrazol-4-yl)quinazolin-6-yl) piperidin-3-ol], the concentration for half-maximal inhibition (IC50) at EGFR L858R was 9 nM; at EGFR (d746-750), 3.6 nM; in assay [1] it was 13.8 nM.

Regarding `CCOc1cc2ncnc(-c3cn(C)nc3-c3ccccc3)c2nc1NC(=O)[C@]12COC[C@H]1C2` (single isomer, unassigned) [Example 379, (1S,5S)—N-(7-ethoxy-4-(1-methyl-3-phenyl-1H-pyrazol-4-yl)pyrido[3,2-d]pyrimidin-6-yl)-3-oxabicyclo[3.1.0]hexane-1-carboxamide or (1R,5R)—N-(7-ethoxy-4-(1-methyl-3-phenyl-1H-pyrazol-4-yl)pyrido[3,2-d]pyrimidin-6-yl)-3-oxabicyclo[3.1.0]hexane-1-carboxamide], the IC50 on EGFR L858R stood at 2.5 nM; at EGFR (d746-750) it was 0.7 nM; in assay [1], 0.8 nM.

For `CCn1cc(-c2ncnc3cc(OC)c(NC(=O)[C@]45COC[C@H]4C5)cc23)c(-c2ccccc2)n1` [Example 289, (1S,5S)—N-(4-(1-ethyl-3-phenyl-1H-pyrazol-4-yl)-7-methoxyquinazolin-6-yl)-3-oxabicyclo[3.1.0]hexane-1-carboxamide], the IC50 turned out to be 1.5 nM at EGFR L858R, 0.8 nM at EGFR (d746-750) and 1.5 nM in assay [1].

On to `COc1cc2ncnc(-c3cn(C4CC4)nc3-c3ccccc3)c2nc1NC(=O)[C@@]12C[C@@H]1CN(C)C2` (single isomer, unassigned) [Example 406, (1S,5S)—N-(4-(1-cyclopropyl-3-phenyl-1H-pyrazol-4-yl)-7-methoxypyrido[3,2-d]pyrimidin-6-yl)-3-methyl-3-azabicyclo[3.1.0]hexane-1-carboxamide or (1R,5R)—N-(4-(1-cyclopropyl-3-phenyl-1H-pyrazol-4-yl)-7-methoxypyrido[3,2-d]pyrimidin-6-yl)-3-methyl-3-azabicyclo[3.1.0]hexane-1-carboxamide], for which the IC50 came out at 1.2 nM at EGFR L858R, 0.7 nM on EGFR (d746-750) and 0.9 nM in assay [1].

As to `CCOc1cc2ncnc(-c3cn(C)nc3-c3ccccc3)c2cc1NC(=O)[C@@]12C[C@@H]1CN(C)C2` (single isomer, unassigned) [Example 256, (1S,5S)—N-(7-ethoxy-4-(1-methyl-3-phenyl-1H-pyrazol-4-yl)quinazolin-6-yl)-3-methyl-3-azabicyclo[3.1.0]hexane-1-carboxamide or (1R,5R)—N-(7-ethoxy-4-(1-methyl-3-phenyl-1H-pyrazol-4-yl)quinazolin-6-yl)-3-methyl-3-azabicyclo[3.1.0]hexane-1-carboxamide], the IC50 at EGFR L858R is 0.8 nM; on EGFR (d746-750), 0.4 nM; in assay [1], 2 nM.

For the compound `COc1cc2ncnc(-c3cn(C)nc3-c3ccccc3)c2cc1NC(=O)c1ccc(C)nc1` [Example 323, N-(7-methoxy-4-(1-methyl-3-phenyl-1H-pyrazol-4-yl)quinazolin-6-yl)-6-methylnicotinamide], the IC50 at EGFR L858R came out at 3.3 nM; at EGFR (d746-750), 1.6 nM; in assay [1], 3.9 nM.

In the case of `CCOc1cc2ncnc(-c3cn(C)nc3-c3ccccc3)c2nc1NC(=O)[C@@]12C[C@@H]1CN(C)C2` (single isomer, unassigned) [Example 377, (1S,5S)—N-(7-ethoxy-4-(1-methyl-3-phenyl-1H-pyrazol-4-yl)pyrido[3,2-d]pyrimidin-6-yl)-3-methyl-3-azabicyclo[3.1.0]hexane-1-carboxamide or (1R,5R)—N-(7-ethoxy-4-(1-methyl-3-phenyl-1H-pyrazol-4-yl)pyrido[3,2-d]pyrimidin-6-yl)-3-methyl-3-azabicyclo[3.1.0]hexane-1-carboxamide], the results for the IC50 (on EGFR L858R; at EGFR (d746-750); in assay [1]) were 2.2 nM, 1.3 nM and 2.8 nM, respectively.

`CCOc1cc2ncnc(-c3cn(C)nc3-c3ccc(F)cc3)c2nc1NC(=O)[C@]12C[C@H]1CN(C)C2` (single isomer, unassigned) [Example 376, (1R,5R)—N-(7-ethoxy-4-(3-(4-fluorophenyl)-1-methyl-1H-pyrazol-4-yl)pyrido[3,2-d]pyrimidin-6-yl)-3-methyl-3-azabicyclo[3.1.0]hexane-1-carboxamide or (1S,5S)—N-(7-ethoxy-4-(3-(4-fluorophenyl)-1-methyl-1H-pyrazol-4-yl)pyrido[3,2-d]pyrimidin-6-yl)-3-methyl-3-azabicyclo[3.1.0]hexane-1-carboxamide]: the IC50 at EGFR L858R came to 1.3 nM; on EGFR (d746-750), 0.4 nM; in assay [1] it was 2.7 nM.
